Assays:
Tie2 [1] = molecular target: T1, Tie2 (Homo sapiens, UniProt Q02763); assay: Tie2 ELISA assay (cellular Tie2 autophosphorylation); type: cell-based; design: expressed in transfected cells; host or cells: CHO (CHO Tie2/DHFR); settings: CHO cells stably transfected with Tie2, stimulated by angiopoietin-2; Tie2 autophosphorylation by sandwich-ELISA; read-out: Tie 2 activity (assay 1)
Method: Cellular activity of compounds of the present invention as inhibitors of Tie2 kinase activity was measured employing a Tie2 ELISA assay as described in the following paragraphs. Herein CHO cell-cultures, which are stably transfected by known techniques with Tie2 using DHFR deficiency as selection marker, are stimulated by angiopoietin-2. The specific autophosphorylation of Tie2 receptors is quantified with a sandwich-ELISA using anti-Tie2 antibodies for catch and anti-phosphotyrosine antibodies coupled to HRP for detection.
• 96 well tissue culture plate, sterile, Greiner • 96 well FluoroNunc plate MaxiSorp Surface C, Nunc • 96 well plate polypropylene for compound dilution in DMSO • CHO Tie2/DHFR (transfected cells) • PBS−; PBS++, DMSO • MEM alpha Medium with Glutamax-I without Ribonucleosides and Deoxyribonucleosides (Gibco #32561-029) • with 10% FCS after dialysis! and 1% PenStrep • Lysis buffer: 1 Tablet “Complete” protease inhibitor • 1 cap Vanadate (1 mL>40 mg/mL; working solution 2 mM) • ad 50 mL with Duschl-Puffer • pH 7.6 • Anti-Tie2-antibody 1:425 in Coating Buffer pH 9.6 • Stock solution: 1.275 mg/mL>working.: 3 μg/mL • PBST: 2 bottles PBS (10×)+10 ml Tween, fill up with VE-water • RotiBlock 1:10 in VE-water • Anti-Phosphotyrosine HRP-Conjugated 1:10000 in 3% TopBlock • 3% TopBlock in PBST • BM Chemiluminescence ELISA Substrate (POD) • solution B 1:100 solution A • SF9 cell culture medium • Ang2-Fc in SF9 cell culture medium
• Dispense 5×10^4 cells/well/98 μL in 96 well tissue culture plate • Incubate at 37° C./5% CO2 • After 24 h add compounds according to desired concentrations • Add also to control and stimulated values without compounds 2 μL DMSO • And mix for a few min at room temperature • Add 100 μL Ang2-Fc to all wells except control, which receives insect medium • Incubate 20 min at 37° C. • Wash 3× with PBS++ • Add 100 μl Lysis buffer/well and shake a couple of min at room temperature • Store lysates at […] before utilizing for the ELISA
• Coat 96 well FluoroNunc Plate MaxiSorp Surface C with anti-Tie2 mAb 1:425 in Coating buffer pH 9.6; 100 μL/well overnight at 4° C. • Wash 2× with PBST • Block plates with 250 μL/well RotiBlock 1:10 in VE-water • Incubate for 2 h at room temperature or overnight at 4° C. shaking • Wash 2× in PBST • Add thawed lysates to wells and incubate overnight shaking at 4° C. • Wash 2× with PBST • Add 100 μL/well anti-Phosphotyrosine HRP-Conjugated 1:10000 in 3% TopBlock (3% TopBlock in PBST) and incubate overnight under shaking • Wash 6× with PBST • Add 100 μL/well BM Chemiluminescence ELISA Substrate (POD) solutions 1 und 2 (1:100) • Determine luminescence with the LumiCount. Assay 2: Tie-2-Kinase HTRF-Assay without Kinase Preactivation
Target sequence in this assay (Q02763 23-1124, species assumed): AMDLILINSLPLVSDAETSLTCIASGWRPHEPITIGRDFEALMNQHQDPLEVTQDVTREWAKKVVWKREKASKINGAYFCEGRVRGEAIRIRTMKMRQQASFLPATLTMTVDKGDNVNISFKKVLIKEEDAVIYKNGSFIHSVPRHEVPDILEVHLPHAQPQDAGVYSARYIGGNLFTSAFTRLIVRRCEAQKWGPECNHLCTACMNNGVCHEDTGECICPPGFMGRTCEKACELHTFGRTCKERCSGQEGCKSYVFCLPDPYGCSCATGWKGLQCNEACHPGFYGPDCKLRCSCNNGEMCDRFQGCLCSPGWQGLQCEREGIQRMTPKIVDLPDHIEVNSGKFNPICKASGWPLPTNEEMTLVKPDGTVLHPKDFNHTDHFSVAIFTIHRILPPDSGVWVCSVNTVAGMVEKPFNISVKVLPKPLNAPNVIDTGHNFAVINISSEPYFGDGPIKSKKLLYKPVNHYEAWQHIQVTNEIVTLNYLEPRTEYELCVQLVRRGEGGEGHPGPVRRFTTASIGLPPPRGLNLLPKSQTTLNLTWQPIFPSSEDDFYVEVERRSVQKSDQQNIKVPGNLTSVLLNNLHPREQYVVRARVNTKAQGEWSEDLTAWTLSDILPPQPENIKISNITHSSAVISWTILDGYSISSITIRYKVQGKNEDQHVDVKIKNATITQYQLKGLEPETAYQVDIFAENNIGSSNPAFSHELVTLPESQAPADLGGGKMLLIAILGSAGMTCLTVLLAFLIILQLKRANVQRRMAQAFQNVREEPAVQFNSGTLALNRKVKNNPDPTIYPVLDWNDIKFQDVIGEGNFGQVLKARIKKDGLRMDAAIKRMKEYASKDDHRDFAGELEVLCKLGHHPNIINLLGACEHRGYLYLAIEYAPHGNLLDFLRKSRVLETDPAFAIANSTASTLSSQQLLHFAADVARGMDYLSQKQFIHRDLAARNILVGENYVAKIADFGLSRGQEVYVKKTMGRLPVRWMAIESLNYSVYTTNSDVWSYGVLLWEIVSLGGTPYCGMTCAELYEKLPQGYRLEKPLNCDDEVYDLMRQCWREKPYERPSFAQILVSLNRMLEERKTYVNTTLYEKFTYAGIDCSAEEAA

Tie2 [2] = molecular target: T1, Tie2; assay: Tie-2-Kinase HTRF-Assay without kinase preactivation; type: biochemical; design: fusion protein of GST and the intracellular domains of Tie-2; GST; made in house; host or cells: insect cells (Hi-5); settings: GST-Tie-2 intracellular domains, 10 μM ATP
Excerpt: Tie2-inhibitory activity of compounds of the present invention was quantified employing two Tie2 HTRF assay as described in the following paragraphs.
A recombinant fusion protein of GST and the intracellular domains of Tie-2, expressed in insect cells (Hi-5) and purified by Glutathion-Sepharose affinity chromatography was used as kinase. Alternatively, commercially available GST-Tie2-fusion protein (Upstate Biotechnology, Dundee, Scotland) can be used As substrate for the kinase reaction the biotinylated peptide biotin-Ahx-EPKDDAYPLYSDFG (C-terminus in amid form) was used which can be purchased e.g. from the company Biosynthan GmbH (Berlin-Buch, Germany). Detection of phosphorylated product is achieved specifically by a trimeric detection complex consisting of the phosphorylated substrate, streptavidin-XLent (SA-XLent) which binds to biotin, and Europium Cryptate-labeled anti-phosphotyrosine antibody PT66 which binds to phosphorylated tyrosine.
Tie-2 (3.5 ng/measurement point) was incubated for 60 min at 22° C. in the presence of 10 μM adenosine-tri-phosphate (ATP) and 1 μM substrate peptide (biotin-Ahx-EPKDDAYPLYSDFG-NH2) with different concentrations of test compounds (0 μM and concentrations in the range 0.001-20 μM) in 5 μl assay buffer [50 mM Hepes/NaOH pH 7, 10 mM MgCl2, 0.5 mM MnCl2, 1.0 mM dithiothreitol, 0.01% NP40, protease inhibitor mixture (“Complete w/o EDTA” from Roche, 1 tablet per 2.5 ml), 1% (v/v) dimethylsulfoxide]. The reaction was stopped by the addition of 5 μl of an aqueous buffer (25 mM Hepes/NaOH pH 7.5, 0.28% (w/v) bovine serum albumin) containing EDTA (90 mM) and the HTRF (Homogeneous Time Resolved Fluorescence) detection reagents streptavidine-XLent (0.2 μM, from Cis Biointernational, Marcoule, France) and PT66-Eu-Chelate (0.3 ng/μl; a europium-chelate labelled anti-phospho-tyrosine antibody from Perkin Elmer).
The resulting mixture was incubated 1 h at 22° C. to allow the binding of the biotinylated phosphorylated peptide to the streptavidine-XLent and the PT66-Eu-Chelate. Subsequently the amount of phosphorylated substrate peptide was evaluated by measurement of the resonance energy transfer from the PT66-Eu-Chelate to the streptavidine-XLent. Therefore, the fluorescence emissions at 620 nm and 665 nm after excitation at 350 nm was measured in a HTRF reader, e.g. a Rubystar (BMG Labtechnologies, Offenburg, Germany) or a Viewlux (Perkin-Elmer). The ratio of the emissions at 665 nm and at […] was taken as the measure for the amount of phosphorylated substrate peptide. The data were normalised (enzyme reaction without inhibitor=0% inhibition, all other assay components but no enzyme=100% inhibition) and IC50 values were calculated by a 4 parameter fit using an inhouse software.
Target sequence in this assay (Q02763 770-1124 limits assumed, species assumed): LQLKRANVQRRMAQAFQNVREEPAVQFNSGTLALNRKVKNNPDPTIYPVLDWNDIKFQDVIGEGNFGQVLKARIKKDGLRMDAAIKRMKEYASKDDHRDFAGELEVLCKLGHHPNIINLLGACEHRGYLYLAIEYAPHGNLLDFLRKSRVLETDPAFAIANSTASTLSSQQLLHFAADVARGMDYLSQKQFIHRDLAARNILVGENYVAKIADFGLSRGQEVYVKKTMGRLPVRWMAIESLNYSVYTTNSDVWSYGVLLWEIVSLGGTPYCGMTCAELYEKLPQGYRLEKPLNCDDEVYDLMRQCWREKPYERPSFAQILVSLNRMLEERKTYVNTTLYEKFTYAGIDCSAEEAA

Tie2 [3] = molecular target: T1, Tie2; design: expressed in transfected cells; host or cells: CHO (CHO Tie2/DHFR); settings: more potent against other kinases than against Tie2; cited from earlier work
Target sequence in this assay (Q02763 23-1124, species assumed): as the sequence (Q02763 23-1124, species assumed) above

Tie2 [4] = molecular target: T1, Tie2; design: expressed in transfected cells; host or cells: CHO (CHO Tie2/DHFR); settings: Albert et al. Mol. Cancer. Ther. 2006, 5, 995; cited from earlier work
Target sequence in this assay (Q02763 23-1124, species assumed): as above

IC50 (Tie2 [1]) [nM] | IC50 (Tie2 [2]) [nM] | SMILES | potency against at least 5 other kinase targets relative to Tie2 (Tie2 [3]) [times] | activity as inhibitor of cellular Tie2 autophosphorylation (Tie2 [4])
< 501 | < 501 | Cn1ncc2c(-c3ccc(NC(=O)Nc4ccc(CN5CCN(CC6CC6)CC5)c(C(F)(F)F)c4)cc3)cncc21 [Example 13.26, 1-[4-(4-Cyclopropylmethyl-piperazin-1-ylmethyl)-3-trifluoromethyl-phenyl]-3-[4-(1-methyl-1H-pyrazolo[3,4-c]pyridin-4-yl)-phenyl]-urea] | – | –
– | – | Cc1ccc(F)c(NC(=O)Nc2ccc(-c3cccc4[nH]nc(N)c34)cc2)c1 [Abt-869] | > 10 | only modest activity

From patent US20090062273A1, “3-H-pyrazolopyridines and salts thereof, pharmaceutical compositions comprising same, methods of preparing same and uses of same” (priority 2006, published 2009)
